Assay results from patent US8586369B2, “Ion channel-forming peptides” (The Regents of the University of California, priority 2007, dated 2013).

What was measured:
Type in all cases: biochemical
[1] = Single channel recordings of gA derivatives in planar lipid bilayers (Example 2); details: 20 mM KCl
Procedure: Formation of Planar Lipid Bilayers: Planar lipid bilayers were formed by the “folding technique.” Briefly, a film (e.g., Teflon®, Eastern Scientific Inc, pore diameter 0.1-0.2 mm) that was pretreated on both sides of the pore with 2 μL of 5% (v/v) hexadecane in pentane. This film was mounted using vacuum grease (Dow Corning, High vacuum grease) to a custom-made Teflon chamber separating two buffer compartments each with a volume capacity of 4 mL. After addition of 1 mL of electrolyte (20 mM KCl buffered with 0.2 mM HEPES pH 7.4 or 140 mM KCl buffered with 10 mM phosphate pH 8.0) to each compartment, lipids were spread at the air-water interface of the electrolyte solution in both compartments. Three additional milliliters of the same electrolyte solution were added to each compartment to raise the liquid level above the aperture in the Teflon film. The bilayers were formed on the pore of the Teflon film by aspirating the electrolyte solution into a 3 mL syringe, followed by dispensing the electrolyte solution back into each compartment.
Ion Channel Measurements: Single channel recordings in “voltage clamp mode” were performed using Ag/AgCl pellet electrodes (Warner Instruments) in each compartment of the bilayer setup. Data acquisition and storage was carried out using custom software in combination with an EPC-7 patch clamp amplifier from Heka (set at a gain of 10 mV pA^−1 and a filter cutoff frequency of 3 kHz). The data acquisition board for the amplifier was set to a sampling frequency of 15 kHz. All current traces shown in the figures were further filtered using a digital Gaussian low-pass filter with a cutoff frequency of 4 Hz.
The analysis of single channel current traces was performed by computing histograms of the currents from the original current versus time traces with ClampFit 9.2 software from Axon Instruments. From these histograms, main current values were extracted by fitting a Gaussian function to the peaks in the histograms. […]

[2] = Monitoring a 1,3-dipolar cycloaddition (click) reaction in situ using single ion channel recordings; details: 40 pM gramicidazide, 2 mM propargyl sulfonate, 0.5 mM CuSO4
Procedure: Gramicidazide was added to a final concentration of 40 pM to both 4 mL chambers of a stirred lipid bilayer setup comprised of zwitterionic 1,2-diphytanoyl-sn-glycero-3-phosphatidylcholine (DiPhyPC) lipids that separated two compartments containing 20 mM KCl, 0.2 mM HEPES buffer, 2 mM sodium ascorbate (as a reducing agent for Cu^II), and 2 mM propargyl sulfonate. The final pH of this solution was 6.9. CuSO4 was added (to give a final concentration of Cu^II of 0.5 mM) to both chambers of the bilayer setup and recorded the single ion channel activity over time. […] The cycloaddition reaction was monitored at a constant applied potential of +75 mV. […]
Monitoring a 1,3-dipolar cycloaddition (“click”) reaction in situ using single ion channel recordings: About 3 μl, (from a 100 ng mL^−1 solution in ethanol) of gramicidazide was added (to afford a final concentration of 40 pM of gramicidazide) to each compartment of a bilayer setup containing as electrolyte 20 mM KCl and 0.2 mM HEPES buffer. […] This strategy made it possible to observe measured currents that would frequently return to baseline (i.e., current steps separated by no observed channel events). Consequently, a small number of events over time were observed, and thus analyzed the data over a window of time rather than at specific time points. […] For the 4-15 minute time window, we measured 26 total channel events. […]

[3] = Single-channel conductance in negatively charged planar bilayers (50% POPE, 50% DOPS); details: 0.01 M KCl, 0.1 mM HEPES pH 7.4
From the text: The data acquisition boards for both amplifiers were set to a sampling frequency of 15 kHz.

[4] = Single-channel conductance in bilayers with positively-charged headgroups (10% DODAP, 90% DiPhyPC); details: 20 mM KCl
Procedure: The conductance of gA-gA and 2-2 in lipid bilayers that contained 10% of a lipid with positively-charged headgroups (here, 1,2-dioleoyl-3-(dimethylamino)propane, DODAP, and 90% DiPhyPC) was measured.
Formation of planar lipid bilayers: We formed most planar lipid bilayers with the “folding technique.” We used a Teflon film (Eastern Scientific Inc, pore diameter 0.18-0.25 mm) was pretreated on each side with 2.5 μL of 5% hexadecane in pentane and air dried. This film was mounted using vacuum grease (Dow Corning, High vacuum grease) to a custom made Teflon chamber separating two buffer compartments each with a volume capacity of 4 mL. […]
Ion channel measurements: We performed single channel recordings in “voltage clamp mode” using Ag/AgCl electrodes (Warner Instruments) in each compartment of the bilayer chambers. […] The current traces we used to generate all data that was recorded at applied potentials s 50 mV were filtered at 10 Hz. […]

[5] = Single-channel conductance of homodimeric gA pores in planar lipid bilayers made from DiPhyPC (Example 1); details: for Single-channel conductance γ: HEPES pH 7.4, DiPhyPC bilayers, slope of I-V curves; for γ-ratio to gA-gA: pH 7.4, DiPhyPC
Procedure: Formation of planar lipid bilayers: We formed most planar lipid bilayers with the “folding technique.” We used a Teflon film (Eastern Scientific Inc, pore diameter 0.18-0.25 mm) was pretreated on each side with 2.5 μL of 5% hexadecane in pentane and air dried. This film was mounted using vacuum grease (Dow Corning, High vacuum grease) to a custom made Teflon chamber separating two buffer compartments each with a volume capacity of 4 mL. After adding 1 mL of electrolyte (0.01 M to 1.00 M KCl buffered with HEPES pH 7.4) to each compartment, lipids were spread from a solution in pentane onto the surface of the electrolyte solutions (specifically, 4-6 μL from 25 mg mL-l solution DiPhyPC or from 6.25 mg mL-l each of 50% DOPS and 50% POPE or from 25 mg mL-l DODAP mixed with 25 mg mL-l DiPhyPC in a 1:9 ratio. Three additional milliliters of electrolyte solution were added to each side of the chamber to raise the liquid levels above the aperture. We formed the bilayers from apposition of two monolayers of lipids using the method described by Montal et al. (Proc. Natl. Acad. Sci. U.S.A. 1972, 69, 3561-3566). Briefly, bilayers were obtained by consecutively raising the liquid level in each compartment until the pore was completely covered by electrolyte. If at this point the pore was not closed by a lipid bilayer, then the liquid level in one or both compartments was lowered below the pore level by aspirating electrolyte into a 3 mL syringe, followed by raising the electrolyte solution again.
Planar lipid bilayers were also made with the “painting technique”. We pretreated each side of a pore in a bilayer cup (Warner Instruments, Delrin perfusion cup, volume 1 mL, pore diameter 250 μm) with ˜2 μL of a 25 mg mL-l solution of DiPhyPC in hexane. After adding recording buffer (0.01 M KCl to 1.00 M KCl buffered with HEPES, pH=7.4) to both compartments of the bilayer setup, we “painted” a solution of 20 mg mL-l DiPhyPC in n-decane over the pore by using a paint brush with a fine tip. We followed the thinning of the decane droplet to form a planar bilayer by monitoring the capacitance of the bilayer. After verifying that bilayers were stable for several minutes (in the range of ±200 mV applied voltage) and that the capacitances were above 80-90 pF, gA was added (4-8 μL from 1 ng mL-l in ethanol), derivatives 1 or 2 (2-10 μL from 100 ng mL-l in ethanol), or derivative 3 (4-10 μL from 100 ng mL-l in ethanol) directly to the bilayer chambers.
Ion channel measurements: We performed single channel recordings in “voltage clamp mode” using Ag/AgCl electrodes (Warner Instruments) in each compartment of the bilayer chambers. Data acquisition and storage was carried out using custom software in combination with either an EPC-7 patch clamp amplifier from List Medical Electronic (set at a gain of 100 mV pA-1 and a filter cutoff frequency of 3 kHz) or a Geneclamp 500 amplifier from Axon Instruments (with a CV-5B 100GU headstage, set at a gain of 100 mV pA-1 and filter cutoff frequency of 1 kHz). We used the EPC-7 amplifier for most folded bilayers and the Geneclamp 500 amplifier for most painted bilayers. The data acquisition boards for both amplifiers were set to a sampling frequency of 15 kHz. All current traces shown in the figures were further filtered using a digital Gaussian low-pass filter with a cutoff frequency of 30 Hz. The current traces we used to generate all data that was recorded at applied potentials s 50 mV were filtered at 10 Hz.
We performed the analysis of the single channel current traces by computing histograms of the currents from the original current-time traces with ClampFit 9.2 software from Axon Instruments. From these histograms we extracted the main current values by fitting a Gaussian function to the peaks in the histograms. […] Single channel conductances reported in this paper always refer to the main conductance state (i.e. to the dominant peaks in the current histograms).

[6] = as above; details: 20 mM KCl plus 10 mM KOH

Row | Substance | single channel conductance (γ) ([1]; 0.2 mM HEPES, 2 mM sodium ascorbate, 2 mM propargyl sulfonate, 0.5 mM CuSO4, pH 6.9, pure samples) | ion channel activity in planar lipid bilayers ([1]; applied potential 100 mV, 0.2 mM HEPES pH 7.4) | time after which the click reaction was complete [2] | Single-channel conductance γ in negatively charged bilayers [3] | increase of the relative ratio of conductance of 2-2 to gA-gA versus purely zwitterionic lipids [4] | Single-channel conductance γ ([5]; 0.01 M KCl, homodimers) | ratio between the conductance of 2-2 and gA-gA ([5]; 0.02 M KCl, 100 mV applied potential) | ratio between the conductance of 2-2 and gA-gA ([5]; 0.02 M KCl, 200 mV applied potential) | conductance compared with gA-gA at pH 7.4 ([5]; 20 mM KCl, DiPhyPC) | γ at pH 7.4 ([5]; 20 mM KCl, DiPhyPC bilayers, homodimers) | overall conductance of heterodimeric pore of gA and 2, with 2 at the entrance of the pore ([5]; 0.02 M KCl, DiPhyPC, transmembrane potentials above 100 mV) | Single-channel conductance γ ([5]; 0.10 M KCl, homodimers) | γ-ratio to gA-gA ([5]; 0.10 M KCl) | Single-channel conductance γ ([5]; 1.00 M KCl, homodimers) | γ-ratio to gA-gA ([5]; 1.00 M KCl) | current as share of the estimated maximum, mass transport limited current (3 pA) ([5]; 200 mV applied potential, 0.02 M KCl) | difference in single channel conductance compared to gA ([5]; approximately 1.00 M KCl) | conductance compared with gA-gA at pH 12 ([6]; DiPhyPC) | γ at pH 12 ([6]; DiPhyPC bilayers, homodimers)
1 | gramicidazide | 3.3±0.1 pS | retained well-defined ion channel activity | ~90 min |  |  |  |  |  |  |  |  |  |  |  |  |  |  |  | 
2 | taurinyl gramicidate [compound 2] |  |  |  | 24.4±0.5 pS | 10% | 4.3 ± 0.3 pS | 1.4 | 1.5 | significantly larger | 5.8 ± 0.1 pS | approximately the same as that of homodimeric pores from 2 | 12.6 ± 0.4 pS | 1.2 | 21.5 ± 0.3 pS | 1.1 | ~30% | < 10% | significantly larger | 9.8 ± 0.2 pS
